In patent publication EP1658050B1, “SELF-NANOEMULSIFYING OILY FORMULATION FOR THE ADMINISTRATION OF POORLY WATER-SOLUBLE DRUGS” (Novagali Pharma S.A., priority 2003, dated 2005):

Columns and labels:
[1] = humans; after oral paclitaxel administration; cited from earlier work
[2] = Pharmacokinetic study of oral paclitaxel emulsions after cyclosporin A oral pretreatment (paclitaxel plasma levels by HPLC-UV); type: in vivo, FVB Wild-type mice; settings: intravenous 10 mg/kg paclitaxel; with versus without 10 mg/kg oral CsA; wild-type mice
Description: Strains: FVB Wild-type mice Source: Breeding stocks of the animal facility of the Netherlands Kancer Institute (NKI) Age: 8-14 weeks Body weight: 18-30 gram Gender: Female Housing: Animal Department of the NKI
Cyclosporin A (Sandimmun®) was diluted 1:25 in water for injection to yield a final concentration of 2 mg/mL. A volume of 5 µL per gram body weight was administered to the animals resulting in a dose of 10 mg/kg of cyclosporin A.
Each cohort through 1 to 3 consisted of 20 Wild-type mice and cohorts.
Cohorts 4 and 5 are reference groups for the calculation of the bioavailability and consisted of 24 animals per cohort.
Oral drug administrations was done by stainless steel gavage using a glass syringe (250 µl: Hamilton luer tip) or a disposable polypropylene syringe (1 ml). The gavage was inserted via the oesophagus into the stomach.
Intravenous drug administrations were done by injection into the tail vein using a disposable polypropylene syringe (300 µl) provided with fixed 29 g needle. […]
Plasma concentration data were reported. Plasma concentrations versus time curves were fitted using the MEDI\WARE software package (version 3.0) and pharmacokinetic parameters: Area under the plasma concentration-time curve (AUC), Maximum plasma level (Cmax), Elimination half-life (t1/2) and Biological availability (F) were calculated.

CC(=O)O[C@H]1C(=O)[C@@]2(C)[C@H]([C@H](OC(=O)c3ccccc3)[C@]3(O)C[C@H](OC(=O)[C@H](O)[C@@H](NC(=O)c4ccccc4)c4ccccc4)C(C)=C1C3(C)C)[C@]1(OC(C)=O)CO[C@@H]1C[C@@H]2O [paclitaxel, Paclitaxel]
systemic bioavailability [1]: less than 6%
increase of intravenously administered paclitaxel AUC by oral pre-treatment with cyclosporin A [2]: 2.35 fold
